Measurements published in paper PMC12555100, “Dextromethorphan Versus Dextrorphan: A Quantitative Comparison of Antitussive Potency Following Separate Administration of Metabolite” (Journal of Clinical Pharmacology, 2025).
Entries after “also recorded” stand apart in the source; their conditions may differ. Where two headings read alike, the source gives them in different places.

What was measured:
[1] = system: cough response to citric acid challenge; experiment: Citric acid cough challenge test, model-independent analysis of antitussive effect; type: in vivo, human; conditions: for Emax, maximum percentage of cough number reduction, mean: mean of 23 healthy volunteers, change relative to baseline; for Emax, maximum percentage of cough number reduction, mean / Emax, maximum percentage of cough number reduction, median: after 40.5 mg dextromethorphan hydrobromide or 44.6 mg dextrorphan-D-tartrate; for AUEC0‐24 h, mean / AUEC0‐24 h, median: area under percent reduction in cough number vs time 0-24 h; for AUEC0‐24 h, mean / TEmax, time of maximum percentage of reduction in cough number, mean / AUEC0‐24 h, median / TEmax, time of maximum percentage of reduction in cough number, median: healthy volunteers; for TEmax, time of maximum percentage of reduction in cough number, mean / TEmax, time of maximum percentage of reduction in cough number, median: after DEX or DOR administration; for Emax, maximum percentage of cough number reduction, median: median of 23 healthy volunteers; for Emax and TEmax compared between DEX, DOR and placebo arms: model-independent analysis; for Antitussive effect (AUEC0‐24 h) compared between DEX, DOR and placebo arms: model-independent pairwise analysis, Friedman test with Dunn's multiple comparison
Excerpt: (§1) The clinical trial has been performed according to the Declaration of Helsinki and was approved by the North Sheffield Research and Ethics Committee (approval number NS98/183). All participants enrolled into the clinical trial have given informed consent. Data were collected from twenty‐three healthy non‐smoker volunteers (12 male) aged 19‐51 years who took part in a double‐blind randomized placebo controlled cross‐over study. […] The exclusion criteria were respiratory tract infection or acute cough within the last 4 weeks, receiving any medication within previous 2 weeks, and any medical condition which may interfere with the study. Preceding the visit day, the volunteer was asked to fast for 8 h, abstain from alcohol, and abstain from caffeinated drinks throughout the study day. Written informed consent was obtained from all volunteers. The study was approved by the […] Research and Ethics Committee. Subjects' cough response to citric acid challenge test was studied on three separate occasions (separated at least 7 days apart) following administration of (i) placebo; (ii) 40.5 mg dextromethorphan hydrobromide; (iii) 44.6 mg of dextrorphan‐D‐tartrate. The order of treatments (placebo, DEX, and DOR) was randomized across participants using a balanced Latin square design to ensure equal distribution of sequence effects. Blood samples for PK analysis were taken periodically (at 0, 1, 2, 3, 4, 5, 6, 8, 10, 12, and 24 h post administration of DEX and DOR).
Details of the cough challenge test were described previously.[24] In summary, cough was produced by five inhalations of 3 mL 10% w/v citric acid (placed in a nebulizing chamber) over 5 min. Prior to randomization, all volunteers underwent a two‐part screening process. Volunteers who coughed between 7 and 14 times following five inhalations of a 10% citric acid solution at the first visit, were considered eligible for further screening. The second visit evaluated both interday and intraday cough response consistency. The acceptable level of variability in cough frequency was established as no more than 20% between separate days and within a single day across three separate measurements. The frequency of cough response was measured at baseline (prior to placebo or drug administration, t = −1 h) and at regular intervals up to 24 h. Cough measurements were obtained at the same time points as blood sampling.
(§2) The percent of change in cough number relative to the baseline (t = 0) was plotted against time and the maximum reduction in cough response (Emax) and its […] (TEmax) were determined. The area under the percent of reduction in cough number against time between 0 until 24 h (AUEC0‐24 h) was calculated using the trapezoidal rule. The correlation between AUEC0‐24 h and area under plasma concentration time between zero and 24 h (AUC0‐24 h) of DEX, (endogenously) formed DOR and directly administered DOR was statistically examined using Spearman rank correlation test. The Friedman test (followed by Dunn's multiple comparison) was used to compare the AUC values of DEX and DOR, as well as the AUEC values, between the different arms of the study.

[2] = Plasma concentrations of DEX and unconjugated DOR (HPLC), model-independent pharmacokinetics; type: in vivo, human; conditions: for 24‐h plasma concentration: almost all subjects (except in 2 cases); for AUC / Cmax / Tmax: both sexes, human, oral
Excerpt: as §1
Plasma concentrations of DEX and unconjugated DOR were determined using high‐performance liquid chromatography with fluorometric detection according to the method of Chen et al.[25] The intra‐assay coefficient of variation for these analyses at a concentration of 2.5 ng/mL ranged from 6% to 13%. The lower limits of quantification were determined to be 0.3 ng/mL for DOR and 0.5 ng/mL for DEX.
as §2

[3] = system: cough response to citric acid challenge; experiment: PK-PD effect compartment link model of cough response; type: in vivo, human; conditions: for Between‐subject variability of ke0: PKPD model
Experimental: Pharmacokinetic/pharmacodynamic analysis (PKPD) of DEX and DOR was conducted using non‐linear mixed effects modelling with Monolix software, 2024R1 (Lixoft SAS, Antony, France). The analysis followed a sequential approach, where the PK parameters of both compounds were estimated initially, and then these were used alongside the cough data to build the PK/PD model. The model components are described below:
The cough response (number of coughs) of the placebo arm of the study was described by the following equation that has been reported in a previous study[27] with some minor modifications: EPlacebo=Baselinecough×scale×k×e^−k×t in which EPlacebo is the placebo effect, BaselineCough is the number of coughs at time (t) zero (before administration of any of the drugs or placebo), scale is the constant of the magnitude of the cough response, and k is the first‐order rate constant for nonlinear suppression of the cough response and return to the baseline. The distribution of all parameters was assumed to be log normal. A constant error model was used to describe intra‐individual variability.
An effect compartment model in which ke0 (DEX) and ke0 (DOR) are the effect‐site equilibration rate constants for DEX and DOR, respectively, was used to link the plasma concentrations of DEX and DOR to the combined effect of the two moieties at the same receptor. This combined effect is described by the following equation: E=EPlacebo×1−Imax×CeDEX/IC50+CeDOR×Pot/IC50^n/1+CeDEX/IC50+CeDOR×Pot/IC50^n in which I max is the maximum antitussive effect, IC50 the concentration of drugs that results in half of the maximum effect, Pot is the relative potency of DOR to DEX and CeDEX and CeDOR are the effect compartment concentrations of DEX and DOR, respectively.[23] Log‐normal distribution model was used to describe the inter‐individual variability of the model parameters and intra‐individual variability was described by a constant error model.

guinea pig brain slices = system: guinea pig brain slices; set-up: method as in PMID 2897648; conditions: cited from earlier work
Caco‐2 monolayers = conditions: cited from earlier work
[4] = plasma, mean, plasma, the administered compound itself (40.5 mg DEX HBr or 44.6 mg DOR-D-tartrate), unconjugated DOR, read-out: AUC0‐24 h, mean
[5] = plasma, mean, plasma, the administered compound itself (40.5 mg DEX HBr or 44.6 mg DOR-D-tartrate), unconjugated DOR, read-out: Cmax, mean
[6] = plasma, mean, plasma, the administered compound itself (40.5 mg DEX HBr or 44.6 mg DOR-D-tartrate), unconjugated DOR, read-out: Tmax, mean
[7] = plasma, median, plasma, the administered compound itself, read-out: AUC0‐24 h, median
[8] = plasma, median, plasma, the administered compound itself, read-out: Tmax, median
[9] = population estimate, common parameter of the combined DEX+DOR effect model

Row | SMILES | Emax, maximum percentage of cough number reduction, mean [1] [%] | AUEC0‐24 h, mean [1] [%hr] | TEmax, time of maximum percentage of reduction in cough number, mean [1] [h] | Emax, maximum percentage of cough number reduction, median [1] [%] | AUEC0‐24 h, median [1] [%hr] | TEmax, time of maximum percentage of reduction in cough number, median [1] [h] | Emax and TEmax compared between DEX, DOR and placebo arms [1] | Antitussive effect (AUEC0‐24 h) compared between DEX, DOR and placebo arms [1] | 24‐h plasma concentration [2] | AUC [2, 4] [ng·h/mL] | Cmax [2, 5] [ng/mL] | Tmax [2, 6] [h] | AUC [2, 7] [ng·h/mL] | Tmax [2, 8] [h] | Between‐subject variability of ke0 [3] [CV%] | ke0, transfer rate constant from the central to the effect compartment ([3]; population estimate) [h⁻¹] | Antiepileptic activity (guinea pig brain slices) | Permeability, DEX compared with DOR (Caco‐2 monolayers) | other results
1 | COc1ccc2c(c1)[C@]13CCCC[C@@H]1[C@H](C2)N(C)CC3 [DEX, dextromethorphan] | −46 | −299 | 3.9 | −44 | −286 | 3.0 | no significant differences | no significant difference | below the limit of quantitation | 26.7 | 3.5 | 1.8 | 16.7 | 1 | 176 | 0.08 | possess antiepileptic activity | comparable permeability | Cmax, median ([2]; median, plasma, the administered compound itself): 2.2 ng/mL
2 | CN1CC[C@@]23CCCC[C@@H]2[C@@H]1Cc1ccc(O)cc13 [DOR, dextrorphan] | −45 | −189 | 6.3 | −46 | −170 | 5.5 | no significant differences | no significant difference; also recorded: did not reveal a statistically significant difference; also recorded: failed to show any statistical difference | below the limit of quantitation | 17.4 | 4.1 | 1.1 | 18.9 | 1 | 171 | 0.02 | possess antiepileptic activity | comparable permeability | Cmax and Tmax of formed DOR compared with direct administration of DOR ([2]; Friedman and Dunn's tests): not statistically different; AUC0−24 h of formed DOR (from DEX metabolism) compared with direct administration of DOR ([2]; Friedman and Dunn's tests, P‐value = .003, higher molar dose of DOR than of DEX): significantly higher; Cmax ([2]; plasma, median, plasma, the administered compound itself, read-out: Cmax, median): 3.8 ng/mL; Plasma concentration of DOR relative to DEX after administration of DEX ([2]; majority of measurement times): up to twofold higher; Maximum cough inhibition (Imax) ([3]; model-based estimate, as percent): 23%; Relative potency of DOR to DEX ([3]; population estimate, as fraction): 0.26; Imax, the maximum antitussive effect (fraction of the baseline) [3, 9]: 0.23; N, Hill coefficient [3, 9]: 2.8
